Measurements taken from patent US20150202311A1, “Collagen-peptide complex” (Q'SAI CO., LTD., priority 2013, published 2015).

Assays:
collagen peptide [1] = test: Coprecipitation of black tea components with collagen peptide, reverse-phase chromatography; assay type: binding, pig; conditions: black tea A 200 ml + collagen peptide 5 g, FIG. 7B
Procedure: (§1) Collagen peptide (dry powder of the pig skin-derived collagen hydrolysate, the average molecular weight: 3000-5000, manufactured by Nippi, Inc.) was dissolved in water so that the specified concentration is achieved.
To black tea A (200 ml), collagen peptide (5 g) was added and mixed; the supernatant and precipitate were separated by centrifuging (10,000×g, for 10 minutes) (Example 6). To determine the components, of the black tea A before the addition of the collagen peptide (FIG. 7A), the supernatant after centrifuging (FIG. 7B), and the precipitate solubilized with SDS (FIG. 7C), were analyzed by reverse-phase chromatography (column: Cosmosil 5C18-AR-II (manufactured by Nacalai Tesque, Inc.), mobile phase: 0.1% formic acid-containing acetonitrile, detection: 215 nm, 280 nm), respectively.

collagen peptide [2] = test: Complex formability of theaflavins and epicatechin with collagen peptide (total Hyp in supernatant / complex); assay type: binding, pig; conditions: catechin 0.2 μmol in 1 ml
Procedure: as §1
A supernatant was obtained by adding the triple volume (v/v) of ethanol to the aqueous solution and centrifuging (10,000×g, 15 min). The supernatant was hydrolyzed with hydrochloric acid (under reduced pressure, 150° C., and 1 hour). After the PITC treatment, the amount of PTC-Hyp (=the total amount of Hyp in the solution) was determined by carrying out reverse-phase chromatography (column: LiChroCART 250-4 (manufactured by Merck)). The amount of PTC-Hyp (=the amount of free Hyp) was determined by carrying out the PITC treatment/reverse-phase chromatography for the supernatant without hydrochloric acid hydrolysis.
The respective aqueous solutions of theaflavins and epicatechin (1 mg/ml) and collagen peptide aqueous solution (200 mg/ml) were prepared, and they were raised at room temperature so that the below-described contents are attained. In the test examples of the present patent application, the following reagents were used.
After mixing, the supernatant and precipitate were separated by centrifuging (8,000×g, […]). According to Method 4, the total amount of Hyp was determined for the supernatant (=“the total amount of Hyp in the supernatant”). “The total amount of Hyp in the complex” was calculated by subtracting “the total amount of Hyp in the supernatant” from the amount of collagen peptide used in the above reaction (2 mg or 10 mg).

Molecule | fate of black tea component in the supernatant after mixing with collagen peptide and centrifuging (collagen peptide [1]) | Total Hyp in the complex (%) (collagen peptide [2]; Collagen peptide 2 mg) | Total Hyp in the supernatant (%) (collagen peptide [2]; Collagen peptide 2 mg) | Total Hyp in the complex (%) (collagen peptide [2]; Collagen peptide 10 mg) | Total Hyp in the supernatant (%) (collagen peptide [2]; Collagen peptide 10 mg)
O=c1c(O)cc([C@H]2Oc3cc(O)cc(O)c3C[C@H]2O)cc2c([C@H]3Oc4cc(O)cc(O)c4C[C@H]3O)cc(O)c(O)c12 [Example 8, theaflavin] | disappeared from the supernatant | 86.5 | 13.5 | 83.8 | 16.2
O=C(O[C@@H]1Cc2c(O)cc(O)cc2O[C@@H]1c1cc(=O)c(O)c2c(O)c(O)cc([C@H]3Oc4cc(O)cc(O)c4C[C@H]3O)c2c1)c1cc(O)c(O)c(O)c1 [Example 9, theaflavin-3-gallate] | disappeared from the supernatant | 87.0 | 13.0 | 86.6 | 13.4
Cn1c(=O)c2c(ncn2C)n(C)c1=O [caffeine] | remained mostly in the supernatant | – | – | – | –
O=C(O[C@@H]1Cc2c(O)cc(O)cc2O[C@@H]1c1ccc(O)c(O)c1)c1cc(O)c(O)c(O)c1 [epicatechin gallate] | remained mostly in the supernatant | – | – | – | –
O=C(O[C@@H]1Cc2c(O)cc(O)cc2O[C@@H]1c1cc(O)c(O)c(O)c1)c1cc(O)c(O)c(O)c1 [epigallocatechin gallate] | remained mostly in the supernatant | – | – | – | –
theaflavin-3,3′-digallate [Example 11] | disappeared from the supernatant | 98.0 | 2.0 | 97.8 | 2.2
theaflavin-3′-gallate [Example 10] | disappeared from the supernatant | 97.7 | 2.3 | 90.5 | 9.5
